# Measurements as given in patent publication US20060069132A1, “Azolecarboxamide herbicides” (priority 2004, published 2006).
# Legend:
# wheat = experiment: Test B postemergence herbicide test; assay type: in vivo, Triticum aestivum; design: key to Wheat plant response rating: 0 = no effect, 100 = complete control; settings: postemergence
# Method in brief: (§1)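 Postemergence plants were sprayed with formulated test chemicals at 2 to 18 cm height (1- to 4-leaf stage); paddy species were grown to the 2-leaf stage. After 13 to 15 days in a greenhouse, injury was rated visually against untreated controls on a 0–100 scale (0 = no effect, 100 = complete control).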
# blackgrass = experiment: Test B postemergence herbicide test; assay type: in vivo, Alopecurus myosuroides; settings: postemergence
# Method in brief: (§2)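 Greenhouse test; postemergence application to plants at 1–4 leaves (2–18 cm); paddy species at 2 leaves; evaluated visually vs controls at 13–15 days; scale 0–100 (100 = complete control).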
# wild oat = experiment: Test B postemergence herbicide test; assay type: in vivo, Avena fatua; settings: postemergence
# Method in brief: as §1
# morningglory = experiment: Test B pre-/postemergence herbicide test; assay type: in vivo, Ipomoea coccinea; settings: for Morningglory plant response rating (0 to 100 scale) / Plant response rating, Morningglory: 0 = no effect, 100 = complete control, preemergence; for Morningglory plant response rating: postemergence
# Method in brief: (§3)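 Greenhouse pot assay with simultaneous preemergence (treated seed) and postemergence (2–18 cm seedlings) applications of surfactant-containing, non-phytotoxic solvent formulations. Response scored visually 13–15 days later on a 0–100 scale, 100 meaning complete control.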
# large crabgrass = experiment: Test B pre-/postemergence herbicide test; assay type: in vivo, Digitaria sanguinalis; settings: for Crabgrass, Large plant response rating (0 to 100 scale) / Plant response rating, Crabgrass, Large: 0 = no effect, 100 = complete control, preemergence; for Crabgrass, Large plant response rating: postemergence
# Method in brief: (§4)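 Evaluation is visual, comparing treated with control plants on a scale where 0 means no effect and 100 means full control. Treatments were preemergence, or postemergence on seedlings 2–18 cm tall, and held 13–15 days in the greenhouse.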
# barnyardgrass = experiment: Test B pre-/postemergence herbicide test; assay type: in vivo, Echinochloa crus-galli; settings: for Barnyardgrass plant response rating (0 to 100 scale) / Plant response rating, Barnyardgrass: 0 = no effect, 100 = complete control, preemergence; for Barnyardgrass plant response rating: postemergence
# Method in brief: as §3
# pigweed = experiment: Test B pre-/postemergence herbicide test; assay type: in vivo, Amaranthus retroflexus; settings: for Pigweed plant response rating (0 to 100 scale) / Plant response rating, Pigweed: 0 = no effect, 100 = complete control, preemergence; for Pigweed plant response rating: postemergence
# Method in brief: as §4
# Surinam grass = experiment: Test B pre-/postemergence herbicide test; assay type: in vivo, Urochloa decumbens; settings: for Surinam Grass plant response rating (0 to 100 scale) / Plant response rating, Surinam Grass: 0 = no effect, 100 = complete control, preemergence; for Surinam Grass plant response rating: postemergence
# Method in brief: as §4
# corn = experiment: Test B pre-/postemergence herbicide test; assay type: in vivo, Zea mays; settings: for Corn plant response rating (0 to 100 scale) / Plant response rating, Corn: 0 = no effect, 100 = complete control, preemergence; for Corn plant response rating: postemergence
# Method in brief: as §4
# cocklebur = experiment: Test B pre-/postemergence herbicide test; assay type: in vivo, Xanthium strumarium; settings: for Cocklebur plant response rating (0 to 100 scale) / Plant response rating, Cocklebur: 0 = no effect, 100 = complete control, preemergence; for Cocklebur plant response rating: postemergence
# Method in brief: as §3
# [1] = system: small flower umbrella sedge; experiment: Test B flooded paddy test; assay type: in vivo, Cyperus difformis; settings: 1000 g ai/ha, scale 0 to 100 (0 no effect, 100 complete control)
# Method in brief: as §2
# lambsquarters = experiment: Test B pre-/postemergence herbicide test; assay type: in vivo, Chenopodium album; settings: for Lambsquarters plant response rating (0 to 100 scale) / Plant response rating, Lambsquarters: 0 = no effect, 100 = complete control, preemergence; for Lambsquarters plant response rating: postemergence
# Method in brief: as §4
# giant foxtail = experiment: Test B pre-/postemergence herbicide test; assay type: in vivo, Setaria faberi; settings: for Foxtail, Giant plant response rating (0 to 100 scale) / Plant response rating, Foxtail, Giant: 0 = no effect, 100 = complete control, preemergence; for Foxtail, Giant plant response rating: postemergence
# Method in brief: as §4
# velvetleaf = experiment: Test B pre-/postemergence herbicide test; assay type: in vivo, Abutilon theophrasti; settings: for Velvetleaf plant response rating: postemergence; for Plant response rating, Velvetleaf: 0 = no effect, 100 = complete control, preemergence
# Method in brief: as §4
# [2] = 125 g ai/ha, visual rating, scale 0 (no effect) to 100 (complete control)
# [3] = 500 g ai/ha, scale 0 to 100, 0 is no effect, 100 is complete control
smiles,measurement,setting,value
CCNC(=O)c1ccc(F)c(NC(=O)c2cc(C3(C)CC3)nn2CC)c1 [Compound 300],Wheat plant response rating,wheat; [2],10
same,Wheat plant response rating,wheat; [3],20
same,Blackgrass plant response rating,blackgrass; [2],10
same,Blackgrass plant response rating,blackgrass; [3],30
same,"Oat, Wild plant response rating",wild oat; [2],30
same,"Oat, Wild plant response rating",wild oat; [3],30
same,Morningglory plant response rating (0 to 100 scale),morningglory; 125 g ai/ha,10
same,Morningglory plant response rating,morningglory; [2],90
same,"Plant response rating, Morningglory","morningglory; 500 g ai/ha, visual rating",60
same,Morningglory plant response rating,morningglory; [3],90
same,"Crabgrass, Large plant response rating (0 to 100 scale)",large crabgrass; 125 g ai/ha,100
same,"Crabgrass, Large plant response rating",large crabgrass; [2],10
same,"Plant response rating, Crabgrass, Large","large crabgrass; 500 g ai/ha, visual rating",100
same,"Crabgrass, Large plant response rating",large crabgrass; [3],30
same,Barnyardgrass plant response rating (0 to 100 scale),barnyardgrass; 125 g ai/ha,70
same,Barnyardgrass plant response rating,barnyardgrass; [2],30
same,"Plant response rating, Barnyardgrass","barnyardgrass; 500 g ai/ha, visual rating",90
same,Barnyardgrass plant response rating,barnyardgrass; [3],50
same,Pigweed plant response rating (0 to 100 scale),pigweed; 125 g ai/ha,100
same,Pigweed plant response rating,pigweed; [2],80
same,"Plant response rating, Pigweed","pigweed; 500 g ai/ha, visual rating",100
same,Pigweed plant response rating,pigweed; [3],90
same,Surinam Grass plant response rating (0 to 100 scale),Surinam grass; 125 g ai/ha,80
same,Surinam Grass plant response rating,Surinam grass; [2],10
same,"Plant response rating, Surinam Grass","Surinam grass; 500 g ai/ha, visual rating",100
same,Surinam Grass plant response rating,Surinam grass; [3],10
same,Corn plant response rating (0 to 100 scale),corn; 125 g ai/ha,0
same,Corn plant response rating,corn; [2],30
same,"Plant response rating, Corn","corn; 500 g ai/ha, visual rating",70
same,Corn plant response rating,corn; [3],30
same,Cocklebur plant response rating (0 to 100 scale),cocklebur; 125 g ai/ha,10
same,Cocklebur plant response rating,cocklebur; [2],10
same,"Plant response rating, Cocklebur","cocklebur; 500 g ai/ha, visual rating",20
same,Cocklebur plant response rating,cocklebur; [3],50
same,"Sedge, Umbrella plant response rating",[1],90
same,Lambsquarters plant response rating (0 to 100 scale),lambsquarters; 125 g ai/ha,100
same,Lambsquarters plant response rating,lambsquarters; [2],70
same,"Plant response rating, Lambsquarters","lambsquarters; 500 g ai/ha, visual rating",100
same,Lambsquarters plant response rating,lambsquarters; [3],80
same,"Foxtail, Giant plant response rating (0 to 100 scale)",giant foxtail; 125 g ai/ha,80
same,"Foxtail, Giant plant response rating",giant foxtail; [2],30
same,"Plant response rating, Foxtail, Giant","giant foxtail; 500 g ai/ha, visual rating",100
same,"Foxtail, Giant plant response rating",giant foxtail; [3],30
same,Velvetleaf plant response rating,velvetleaf; [2],40
same,"Plant response rating, Velvetleaf","velvetleaf; 500 g ai/ha, visual rating",100
same,Velvetleaf plant response rating,velvetleaf; [3],70
CCn1nc(C2(C)CC2)cc1C(=O)Nc1cc(C(=O)N2CC=CC2)ccc1F [Compound 301],Wheat plant response rating,wheat; [2],10
same,Wheat plant response rating,wheat; [3],20
same,Blackgrass plant response rating,blackgrass; [2],10
same,Blackgrass plant response rating,blackgrass; [3],40
same,"Oat, Wild plant response rating",wild oat; [2],20
same,"Oat, Wild plant response rating",wild oat; [3],40
same,Morningglory plant response rating (0 to 100 scale),morningglory; 125 g ai/ha,10
same,Morningglory plant response rating,morningglory; [2],60
same,"Plant response rating, Morningglory","morningglory; 500 g ai/ha, visual rating",80
same,Morningglory plant response rating,morningglory; [3],90
same,"Crabgrass, Large plant response rating (0 to 100 scale)",large crabgrass; 125 g ai/ha,100
same,"Crabgrass, Large plant response rating",large crabgrass; [2],20
same,"Plant response rating, Crabgrass, Large","large crabgrass; 500 g ai/ha, visual rating",100
same,"Crabgrass, Large plant response rating",large crabgrass; [3],60
same,Barnyardgrass plant response rating (0 to 100 scale),barnyardgrass; 125 g ai/ha,60
same,Barnyardgrass plant response rating,barnyardgrass; [2],20
same,"Plant response rating, Barnyardgrass","barnyardgrass; 500 g ai/ha, visual rating",100
same,Barnyardgrass plant response rating,barnyardgrass; [3],60
same,Pigweed plant response rating (0 to 100 scale),pigweed; 125 g ai/ha,100
same,Pigweed plant response rating,pigweed; [2],80
same,"Plant response rating, Pigweed","pigweed; 500 g ai/ha, visual rating",100
same,Pigweed plant response rating,pigweed; [3],90
same,Surinam Grass plant response rating (0 to 100 scale),Surinam grass; 125 g ai/ha,90
same,Surinam Grass plant response rating,Surinam grass; [2],10
same,"Plant response rating, Surinam Grass","Surinam grass; 500 g ai/ha, visual rating",100
same,Surinam Grass plant response rating,Surinam grass; [3],30
same,Corn plant response rating (0 to 100 scale),corn; 125 g ai/ha,0
same,Corn plant response rating,corn; [2],50
same,"Plant response rating, Corn","corn; 500 g ai/ha, visual rating",10
same,Corn plant response rating,corn; [3],50
same,Cocklebur plant response rating (0 to 100 scale),cocklebur; 125 g ai/ha,0
same,Cocklebur plant response rating,cocklebur; [2],10
same,"Plant response rating, Cocklebur","cocklebur; 500 g ai/ha, visual rating",0
same,Cocklebur plant response rating,cocklebur; [3],50
same,"Sedge, Umbrella plant response rating",[1],90
same,Lambsquarters plant response rating (0 to 100 scale),lambsquarters; 125 g ai/ha,100
same,Lambsquarters plant response rating,lambsquarters; [2],70
same,"Plant response rating, Lambsquarters","lambsquarters; 500 g ai/ha, visual rating",100
same,Lambsquarters plant response rating,lambsquarters; [3],80
same,"Foxtail, Giant plant response rating (0 to 100 scale)",giant foxtail; 125 g ai/ha,70
same,"Foxtail, Giant plant response rating",giant foxtail; [2],10
same,"Plant response rating, Foxtail, Giant","giant foxtail; 500 g ai/ha, visual rating",90
same,"Foxtail, Giant plant response rating",giant foxtail; [3],20
same,Velvetleaf plant response rating,velvetleaf; [2],30
same,"Plant response rating, Velvetleaf","velvetleaf; 500 g ai/ha, visual rating",100
same,Velvetleaf plant response rating,velvetleaf; [3],100
